This note sets out measurements from BindingDB's records for doi:10.7270/Q2D50KC1 (The Scripps Research Institute Molecular Screening Center, 2007).

Some results are limits rather than exact numbers.

Sphingosine 1-phosphate receptor 3, sequence (Q99500 whole entry): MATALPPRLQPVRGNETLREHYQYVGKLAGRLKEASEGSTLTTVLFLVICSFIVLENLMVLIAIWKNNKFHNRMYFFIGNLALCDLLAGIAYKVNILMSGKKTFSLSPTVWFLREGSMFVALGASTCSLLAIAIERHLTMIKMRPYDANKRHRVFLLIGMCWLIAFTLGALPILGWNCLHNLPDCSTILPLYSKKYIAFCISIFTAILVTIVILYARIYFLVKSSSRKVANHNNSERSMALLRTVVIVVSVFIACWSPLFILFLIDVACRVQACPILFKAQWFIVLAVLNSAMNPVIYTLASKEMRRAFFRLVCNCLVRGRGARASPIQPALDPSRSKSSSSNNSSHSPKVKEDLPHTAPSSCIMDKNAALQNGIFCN

The assay concerns the target Sphingosine 1-phosphate receptor 3 (Homo sapiens, UniProt Q99500). As to the kind of experiment: S1P3 receptor NFAT-BLA reporter inhibition, dose response, counter-screen for 5HT1E antagonist project, CHO cells, Ga15, NFAT beta-lactamase, FRET (AID 776). In general terms: The purpose of a counterscreen is to sort out artefacts and off-target activity.
As for `CSc1ccccc1NC=C1C(=O)CC(C)(C)CC1=O` [SMR000111352], the IC50 (as a rule, the point on the concentration scale where inhibition reaches its midpoint) stood at 4.33 µM.
The compound `COc1cc2c(cc1OC)-c1cc(N3CCCc4ccccc43)nc(=O)n1CC2` [2-(3,4-dihydro-2H-quinolin-1-yl)-9,10-dimethoxy-6,7-dihydropyrimido[6,1-a]isoquinolin-4-one] came in with an IC50 greater than 17.7 µM.
The compound `COc1ccc(C2N(c3ccc(F)cc3)C(=O)C3CCCN32)cc1` (stereo not drawn) [SMR000094164] displayed a half-maximal inhibitory concentration (IC50) greater than 50 µM.
With `COc1cccc(N2CCN(c3ncnc4c3[nH]c3ccc(F)cc34)CC2C)c1` (stereo not drawn) [8-fluoranyl-4-[4-(3-methoxyphenyl)-3-methyl-piperazin-1-yl]-5H-pyrimido[5,4-b]indole], half-maximal inhibition (IC50) was put at 0.934 µM.
With `Cn1c(-c2c(N)n(C3CCCC3)c3nc4ccccc4nc23)nc2ccccc21` [1-cyclopentyl-3-(1-methyl-2-benzimidazolyl)-2-pyrrolo[3,2-b]quinoxalinamine], the IC50 was 2.04 µM.
Take `CS(=O)(=O)c1nc(-c2ccccc2)cc(C(F)(F)F)n1` [MLS000044644]: the IC50 amounted to 3.51 µM.
In turn, `COc1ccccc1-c1nnc2n1N=C(c1ccc(O)c(O)c1)CS2` [(4E)-4-[3-(2-methoxyphenyl)-5H-[1,2,4]triazolo[3,4-b][1,3,4]thiadiazin-6-ylidene]-2-oxidanyl-cyclohexa-2,5-dien-1-one] yielded an IC50 greater than 50 µM.
In turn, `COc1ccc(-c2cc(C(F)(F)F)nc(S(C)(=O)=O)n2)cc1OC` [4-(3,4-dimethoxyphenyl)-2-methylsulfonyl-6-(trifluoromethyl)pyrimidine] had an IC50 of 5.18 µM.
Turning to `CCn1nc(-c2ccccc2)nc2c(=O)n(C)c(=O)nc1-2` [1-Ethyl-6-methyl-3-phenyl-1H-pyrimido[5,4-e][1,2,4]triazine-5,7-dione], the IC50 worked out at 1.08 µM.
With `CCOc1ccc(C2=Nn3c(nnc3-c3ccccc3OC)SC2)cc1` [6-(4-ethoxyphenyl)-3-(2-methoxyphenyl)-7H-[1,2,4]triazolo[3,4-b][1,3,4]thiadiazine] the figure was greater than 12.4 µM.
In the case of `N#CCCS(=O)(=O)c1nnnn1-c1ccccc1` [3-(1-phenyltetrazol-5-yl)sulfonylpropanenitrile], the IC50 was 3.33 µM.
In turn, `COc1cc2c(cc1OC)C1=C(C#N)CC=C(NS(=O)(=O)c3ccccc3)N1CC2` [SMR000092093] came in with a concentration for half-maximal inhibition (IC50) greater than 50 µM.
For the compound `CN(C)c1nc(OCCNC(=O)COc2ccc(Cl)cc2Cl)nc(N2CCCCC2)n1` [SMR000072558], the IC50 was greater than 50 µM.
Turning to `COc1cccc(N2CCN(c3ncnc4c3[nH]c3ccccc34)CC2C)c1` (stereo not drawn) [4-[4-(3-methoxyphenyl)-3-methyl-1-piperazinyl]-5H-pyrimido[5,4-b]indole], the IC50 was 4.3 µM.
In turn, `CCC(NC(=O)Nc1nnc(C(F)(F)F)s1)(C(F)(F)F)C(F)(F)F` gave an IC50 greater than 12.4 µM.
`COc1ccc(-n2nnnc2S(=O)(=O)CC(=O)N2CCCCC2)cc1` [2-[1-(4-methoxyphenyl)tetrazol-5-yl]sulfonyl-1-piperidin-1-ylethanone] displayed an IC50 of 4.32 µM.
With `CC(=O)Oc1ccc(-n2c(O)c3c(c2O)C2(C)C=CC3(C)O2)cc1` [MLS000107813], the half-maximal inhibitory concentration (IC50) came out at 7.56 µM.
For the compound `CCN(CC)c1ccc2c(Cl)c(Br)c(=O)oc2c1`, half-maximal inhibition (IC50) required 1.68 µM.
Take `CC(=O)Nc1cc(OC(C)=O)c2nonc2c1OC(C)=O` [Acetic acid 7-acetoxy-5-acetylamino-benzo[1,2,5]oxadiazol-4-yl ester]: the IC50 was determined as 1.82 µM.
As for `COc1ccc(-n2c(O)cc(NCc3ccncc3)c2O)cc1` [MLS000099014], the figure is greater than 50 µM; as for `COc1cccc(N2CCN(c3ncnc4c3cnn4-c3ccc(C)cc3C)CC2)c1` [SMR000017007], 5.06 µM; as for `OCC12C=CC(O1)c1c2c(O)n(-c2ccc(-c3ccccc3)cc2)c1O` (stereo not drawn), greater than 12.4 µM.
As for `COC(=O)/C(=C1/Oc2cc(C)oc(=O)c2S1)C(F)(F)F` [methyl (2E)-3,3,3-tris(fluoranyl)-2-(6-methyl-4-oxidanylidene-[1,3]oxathiolo[4,5-c]pyran-2-ylidene)propanoate], the IC50 stood at 1.42 µM.
As for `COC(=O)Nc1nc2ccc(Sc3ccccc3)cc2[nH]1` [FENBENDAZOLE], the IC50 is greater than 50 µM.
As for `COc1cc(NS(=O)(=O)c2ccc(C)cc2)c2ncccc2c1` [SMR000071147], the figure is greater than 39 µM.
`Cc1ccc(N(CC2=NCCN2)c2cccc(O)c2)cc1` [SMR000059054] returned an IC50 greater than 50 µM.
`O=C(Nc1ccc(-c2nc3ncccc3o2)cc1)c1ccc(Br)o1` had an IC50 greater than 50 µM.
In the case of `Cc1ccc(S(=O)(=O)Nc2cccc3ncccc23)s1` [5-methyl-N-quinolin-5-ylthiophene-2-sulfonamide], the half-maximal inhibitory concentration (IC50) was greater than 39 µM.
The compound `CCCOCCOC(=O)c1[nH]c2c(c1C)C(=O)CC(c1cc(OC)ccc1OC)C2` (stereo not drawn) had an IC50 greater than 39 µM.
With `CCn1c(=O)c(C(=O)Nc2nc3ccccc3[nH]2)c(O)c2ccccc21` [MLS000027148] the figure was greater than 12.4 µM; with `CS(=O)(=O)c1nc(-c2cccs2)cc(C(F)(F)F)n1` [MLS000044645], 3.45 µM.
The compound `CCn1nc(-c2cccs2)nc2c(=O)n(C)c(=O)nc1-2` [1-ethyl-6-methyl-3-thiophen-2-yl-pyrimido[5,4-e][1,2,4]triazine-5,7-dione] yielded a half-inhibitory concentration (IC50) of 0.815 µM.
Consider `COCCOC(=O)c1[nH]c2c(c1C)C(=O)CC(c1ccccc1)C2` (stereo not drawn) [SMR000025505], for which the IC50 was greater than 50 µM.
Compound `Clc1ccc(-n2nnnc2Sc2ncnc3sccc23)cc1` [SMR000066808] yielded an IC50 of 7.55 µM.
`O=C(Nc1ccc(N2CCOCC2)cc1)Nc1ccc2nc(-c3ccco3)c(-c3ccco3)nc2c1` [N-(2,3-di-2-furyl-6-quinoxalinyl)-N'-[4-(4-morpholinyl)phenyl]urea] had an IC50 greater than 12.4 µM.
With `Cc1ccc(-n2nc3c([n+]2[O-])CCc2c-3n[o+]n2[O-])cc1` [7-(4-methylphenyl)-3,6-dioxido-4,5-dihydrotriazolo[4,5-e][2,1,3]benzoxadiazole-3,6-diium] the figure was 5.78 µM.
As for `CCOc1cccc(-c2nnc3n2N=C(c2cc(OC)ccc2OC)CS3)c1` [MLS000081451], the figure is greater than 17.7 µM.
Consider `O=S1(=O)C=C(Sc2nnc(-c3ccccc3)o2)c2ccccc21`, for which the IC50 was found to be 2.33 µM.
Compound `CCCc1nnc2n1N=C(c1ccc(OC)c(OC)c1)CS2` [SMR000057783] returned an IC50 greater than 50 µM.
The compound `CC(C)=CCC(C)(C)CNC(=O)NC1CCCCC1` returned a 50% inhibitory concentration (IC50) greater than 50 µM.
Turning to `CS(=O)(=O)c1nc(-c2ccco2)cc(C(F)(F)F)n1` [MLS000044646], the IC50 was determined as 4.88 µM.
As for `CCCOc1ccc2nc(NC(=O)OC)[nH]c2c1` [SMR000058208], the figure is greater than 50 µM.
Compound `N#C/C(=C/c1ccc(N2CCCCCC2)o1)c1ccc(F)cc1` [MLS000051438] showed an IC50 of 4.69 µM.
